The structures appear in SMILES notation.

The test system of the first assay is AR. Briefly: In Vitro AR Agonism Assay (LNAR reporter cell line). The class given is cell-based. As to conditions: LNAR cells, RPMI + 10% CSS, 18-24 hrs; maximum response of Mifepristone set to 1. The protocol: Example 6: In Vitro AR Agonism Assay
The AR agonism assay was done in the LNAR reporter cell line which has overexpressed AR and 4XARE-Luc genes. This cell line is sensitive to even minor partial AR agonism activity in hormone-deprived media (CSS). The assays were done in RPMI (without phenol red)+10% CSS using 6000 LNAR cells/well in 384-well plates and compounds were incubated with cells in […] incubator for 18-24 hrs. OneGlo reagent (25 uL/well) was added and plates were read with luminometer within 3 minutes.
To gauge the AR partial agonism activity, Mifepristone is included as a standard in the assay. AR agonism assay results are quantified by determining the ratio of the maximum response of individual compounds to the maximum response of Mifepristone (arbitrarily set to 1). Values of Table 3 are reported as Relative Maximum Response to Mifepristone. This general trend of AR agonism was shown for the class of compounds described herein.
In the case of `CC#C[C@]1(O)[C@H](CC)C[C@H]2[C@@H]3CCC4=CC(=O)CCC4=C3[C@@H](c3ccc(N(C)C)cc3)C[C@@]21C` [drawing 254], the “Relative Maximum Response to Mifepristone” value (shortened to “Relative Maximum Response”) is listed as “A (A: ≤0.4)”. `CC#C[C@]1(O)CC[C@H]2[C@@H]3CCC4=CC(=O)CCC4=C3[C@@H](c3ccc(Cl)c(C(C)C)c3)C[C@@]21C` [drawing 248]: the “Relative Maximum Response” value is “A (A: ≤0.4)”. As for `CC#C[C@]1(O)CC[C@H]2[C@@H]3CCC4=CC(=O)CCC4=C3[C@@H](c3ccc(N(C)C)c(C(C)C)c3)C[C@@]21C` [drawing 250], the “Relative Maximum Response” value was “A (A: ≤0.4)”.

For `CC#C[C@]1(O)CC[C@H]2[C@@H]3CCC4=CC(=O)CCC4=C3[C@@H](c3ccc4c(c3)OCCO4)C[C@@]21C` [drawing 253], the “Relative Maximum Response” value was “A (A: ≤0.4)”.

Another assay addresses T1, GR (Homo sapiens, UniProt P04150).
T1 construct: expressed in transfected cells; host or cells: CHO-K1 (CHO-K1-GR-MMTV-Luc reporter cells)
T1 sequence (P04150 1-777): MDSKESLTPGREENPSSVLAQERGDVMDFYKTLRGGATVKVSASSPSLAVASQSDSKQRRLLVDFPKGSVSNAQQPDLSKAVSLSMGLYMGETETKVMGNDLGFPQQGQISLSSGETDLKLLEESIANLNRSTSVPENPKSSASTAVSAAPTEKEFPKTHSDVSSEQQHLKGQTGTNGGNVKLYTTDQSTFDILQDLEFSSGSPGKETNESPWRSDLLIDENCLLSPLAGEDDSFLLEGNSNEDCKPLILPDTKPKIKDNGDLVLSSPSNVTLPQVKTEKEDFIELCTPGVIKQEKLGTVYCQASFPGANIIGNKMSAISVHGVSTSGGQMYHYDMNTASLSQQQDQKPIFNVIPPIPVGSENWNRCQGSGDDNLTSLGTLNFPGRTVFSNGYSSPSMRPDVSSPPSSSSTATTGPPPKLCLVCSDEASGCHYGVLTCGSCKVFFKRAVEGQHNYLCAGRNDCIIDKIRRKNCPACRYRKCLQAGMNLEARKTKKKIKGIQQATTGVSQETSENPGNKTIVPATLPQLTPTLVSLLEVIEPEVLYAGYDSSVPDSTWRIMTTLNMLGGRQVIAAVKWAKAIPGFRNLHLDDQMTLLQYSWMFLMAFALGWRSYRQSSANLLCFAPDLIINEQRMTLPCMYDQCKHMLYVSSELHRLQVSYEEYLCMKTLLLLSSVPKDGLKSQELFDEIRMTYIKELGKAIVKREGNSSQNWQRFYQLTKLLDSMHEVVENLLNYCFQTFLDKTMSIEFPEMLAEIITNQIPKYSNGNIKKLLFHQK
Briefly: In Vitro GR Luciferase Reporter Assay (antagonist assay). The class given is cell-based. The following applies: CHO-K1-GR-MMTV-Luc reporter cells, 10 nM Dexamethasone, 18-24 hours. The protocol:
Cell Line: CHO-K1-GR-MMTV-Luc reporter cells
Culture Media: DMEM (with phenol red)+10% FBS
Assay Media: DMEM (without phenol red)+10% CSS
Culture CHO-K1-GR-MMTV-Luc reporter cells in 15 cm plates in Culture Media at conditions less than 90% confluence.
Prepare 200×DMSO 1:5 serial dilutions of control and test compounds in 96-well non-sterile V bottom plate in DMSO, 8 serial dilutions for each compound.
Add compounds: 5 ul of assay media diluted compounds were added to appropriate wells and followed a quick spin (1000 rpm, 10 sec) to bring media and cells to the bottom of plate. The plates were covered with SealMate film to avoid evaporation and placed in 37° C. incubator for approximately 18-24 hours.
Read plates: Equilibrate appropriate amount of Promega OneGlo luciferase reagent to room temperature. Remove the plates from incubator and add 25 uL of OneGlo reagent/well by multiple channel pipette and read the plates with Tecan F500 luminometer within 3 minutes.
The ability of the compounds disclosed herein to inhibit GR activity was quantified and the respective IC50 value was determined.
In general terms: A reporter such as luciferase makes a cellular process visible.
With `CC#C[C@]1(O)CC[C@H]2[C@@H]3CCC4=CC(=O)CCC4=C3[C@@H](c3ccc(C)c(F)c3)C[C@@]21C`, the IC50 was below 100 nM. Compound `CC#C[C@]1(O)CC[C@H]2[C@@H]3CCC4=CC(=O)CCC4=C3[C@@H](c3ccc(C)c(N(C)C)c3)C[C@@]21C` showed an IC50 below 100 nM. With `CC#C[C@]1(O)CC[C@H]2[C@@H]3CCC4=CC(=O)CCC4=C3[C@@H](c3cc(F)c(C)c(F)c3)C[C@@]21C` [drawing 209], the IC50 is below 100 nM. In turn, `CC#C[C@]1(O)CC[C@H]2[C@@H]3CCC4=CC(=O)CCC4=C3[C@@H](c3c(F)cc(N4CCOCC4)cc3F)C[C@@]21C` yielded an IC50 below 100 nM.

`CC#C[C@]1(O)[C@H](C)C[C@H]2[C@@H]3CCC4=CC(=O)CCC4=C3[C@@H](c3ccc(S(=O)(=O)C(C)(C)C)cc3)C[C@@]21C` had an IC50 above 100 nM.

On to `CC#C[C@]1(O)C2(CC2)C[C@H]2[C@@H]3CCC4=CC(=O)CCC4=C3[C@@H](c3c(F)cc(N(C)C)cc3F)C[C@@]21C`, for which the IC50 is below 100 nM. Still for that read-out and setting: the same measure for `CC#C[C@]1(OC(=O)CC)CC[C@H]2[C@@H]3CCC4=CC(=O)CCC4=C3[C@@H](c3cc(F)c(C)c(F)c3)C[C@@]21C`: above 100 nM; for `CC#C[C@]1(O)CC[C@H]2[C@@H]3CCC4=CC(=O)CCC4=C3[C@@H](c3ccc(Cl)c(N(C)C)c3)C[C@@]21C`: above 100 nM; for `CC#C[C@]1(O)CC[C@H]2[C@@H]3CCC4=CC(=O)CCC4=C3[C@@H](c3ccc(OC)c(C(C)C)c3)C[C@@]21C`: below 100 nM. As to `CC#C[C@]1(O)CC[C@H]2[C@@H]3CCC4=CC(=O)CCC4=C3[C@@H](c3cccc(C(C)O)c3)C[C@@]21C` (some centres unmarked), the IC50 was above 100 nM. Compound `CC#C[C@]1(O)CC[C@H]2[C@@H]3CCC4=CC(=O)CCC4=C3[C@@H](c3ccc(C)c(OC)c3)C[C@@]21C` came in with a 50% inhibitory concentration (IC50) below 100 nM. Turning to `CC#C[C@]1(O)[C@H](C)C[C@H]2[C@@H]3CCC4=CC(=O)CCC4=C3[C@@H](c3ccc(N4CCOC[C@H]4C)cc3)C[C@@]21C` [drawing 227], the IC50 is below 100 nM. As to `[2H]C([2H])([2H])C#C[C@]1(O)CC[C@H]2[C@@H]3CCC4=CC(=O)CCC4=C3[C@@H](c3ccc4c(c3)OCCO4)C[C@@]21C`, the IC50 is below 100 nM. On to `CC#C[C@]1(O)CC[C@H]2[C@@H]3CCC4=CC(=O)CCC4=C3[C@@H](c3ccc(C(C)C)c(OC)c3)C[C@@]21C`, for which the IC50 is below 100 nM. The compound `CC#C[C@]1(O)CC[C@H]2[C@@H]3CCC4=CC(=O)CCC4=C3[C@@H](c3ccc(F)c(N(C)C)c3)C[C@@]21C` returned an IC50 above 100 nM. In the case of `CC#C[C@]1(O)CC[C@H]2[C@@H]3CCC4=CC(=O)CCC4=C3[C@@H](c3cccc(C4CC4)c3)C[C@@]21C`, the IC50 was below 100 nM. `CC#C[C@]1(O)CC[C@H]2[C@@H]3CCC4=CC(=O)CCC4=C3[C@@H](c3cc(F)cc(F)c3)C[C@@]21C` [drawing 196] gave a concentration for half-maximal inhibition (IC50) below 100 nM.

With `CC#C[C@]1(O)CC[C@H]2[C@@H]3CCC4=CC(=O)CCC4=C3[C@@H](c3ccc(S(=O)(=O)C(C)(C)C)cc3)C[C@@]21C` [drawing 182], the IC50 is below 100 nM.

`CC#C[C@]1(O)[C@H](C)C[C@H]2[C@@H]3CCC4=CC(=O)CCC4=C3[C@@H](c3cc(F)c(N(C)C)c(F)c3)C[C@@]21C` gave an IC50 below 100 nM. `CC#C[C@]1(O)CC[C@H]2[C@@H]3CCC4=CC(=O)CCC4=C3[C@@H](c3cccc(C(C)C)c3)C[C@@]21C` [drawing 185] returned an IC50 below 100 nM. The compound `CC#C[C@]1(O)CC[C@H]2[C@@H]3CCC4=CC(=O)CCC4=C3[C@@H](c3ccc4c(c3)OCCCO4)C[C@@]21C` came in with an IC50 below 100 nM.

For the compound `CC#C[C@]1(O)CC[C@H]2[C@@H]3CCC4=CC(=O)CCC4=C3[C@@H](c3c(F)cc(N(C)CC)cc3F)C[C@@]21C`, the IC50 was below 100 nM. The same measure, in the same setting: for `CC#C[C@]1(O)C2(CC2)C[C@H]2[C@@H]3CCC4=CC(=O)CCC4=C3[C@@H](c3ccc(S(=O)(=O)N(C)C)cc3)C[C@@]21C` the value was below 100 nM; for `CC#C[C@]1(O)CC[C@H]2[C@@H]3CCC4=CC(=O)CCC4=C3[C@@H](c3ccc(Cl)c(OC)c3)C[C@@]21C` [drawing 204], above 100 nM. Same read-out and setting: the same measure for `CC#C[C@]1(O)CC[C@H]2[C@@H]3CCC4=CC(=O)CCC4=C3[C@@H](c3cccc(OC(C)C)c3)C[C@@]21C`: above 100 nM; for `CC#C[C@]1(O)CC[C@H]2[C@@H]3CCC4=CC(=O)CCC4=C3[C@@H](c3cccc(CC)c3)C[C@@]21C`: below 100 nM. The same measure, in the same setting: for `CC#C[C@]1(O)[C@H](C)C[C@H]2[C@@H]3CCC4=CC(=O)CCC4=C3[C@@H](c3ccc(C)c(F)c3)C[C@@]21C` the value was below 100 nM; for `CC#C[C@]1(O)CC[C@H]2[C@@H]3CCC4=CC(=O)CCC4=C3[C@@H](c3c(F)cc(CC)cc3F)C[C@@]21C`, below 100 nM; for `CC#C[C@]1(O)CC[C@H]2[C@@H]3CCC4=CC(=O)CCC4=C3[C@@H](c3cccc(COC)c3)C[C@@]21C`, below 100 nM. `CC#C[C@]1(O)CC[C@H]2[C@@H]3CCC4=CC(=O)CCC4=C3[C@@H](c3cc(C)c(N(C)C)c(F)c3)C[C@@]21C` came in with an IC50 below 100 nM. In turn, `CC#C[C@]1(O)CC[C@H]2[C@@H]3CCC4=CC(=O)CCC4=C3[C@@H](c3ccc(NS(=O)(=O)c4ccc(C)cc4)cc3)C[C@@]21C` gave an IC50 above 100 nM.

`CC#C[C@]1(O)[C@H](C)C[C@H]2[C@@H]3CCC4=CC(=O)CCC4=C3[C@@H](c3ccc(S(=O)(=O)N4CCCCC4)cc3)C[C@@]21C` [drawing 226]: the IC50 is below 100 nM. With `CC#C[C@]1(O)CC[C@H]2[C@@H]3CCC4=CC(=O)CCC4=C3[C@@H](c3ccc4c(c3)OCCO4)C[C@@]21C` [drawing 210], the half-maximal inhibitory concentration (IC50) was below 100 nM.

Compound `CC#C[C@]1(O)CC[C@H]2[C@@H]3CCC4=CC(=O)CCC4=C3[C@@H](c3cc(F)c(OC)c(F)c3)C[C@@]21C` gave an IC50 below 100 nM.

On to `CC#C[C@]1(O)CC[C@H]2[C@@H]3CCC4=CC(=O)CCC4=C3[C@@H](c3cc(F)c(N(C)C)c(F)c3)C[C@@]21C`, for which the IC50 is below 100 nM. The compound `CC#C[C@]1(O)CC[C@H]2[C@@H]3CCC4=CC(=O)CCC4=C3[C@@H](c3ccc(C(C)C)c(N(C)C)c3)C[C@@]21C` [drawing 201] displayed an IC50 below 100 nM.

As to `CC#C[C@]1(O)CC[C@H]2[C@@H]3CCC4=CC(=O)CCC4=C3[C@@H](c3ccc(F)c(OC)c3)C[C@@]21C`, the IC50 is above 100 nM.

Broadly, the IC50 is the concentration that inhibits the measured activity by half. Read a high IC50 as a need for much substance.

(Values after US11110103B2, “Inhibitors of glucocorticoid receptor” (ORIC Pharmaceuticals, Inc., priority 2015, dated 2021).)
